Reference: patent US8247211B2, “Glycopeptide antibiotics” (American Cyanamid Company, priority 2001, dated 2012)
Converted amounts (≈) assume the structure as drawn.

Columns and labels:
Test in all cases: In vitro antibacterial evaluation: minimum inhibitory concentration (MIC), broth dilution method
Format in all cases: cell-based
Details in all cases: broth dilution, 18 hours at 35° C.
Staphylococcus sp. = test system: Staphylococcus sp.
Outline: (§1)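 Using Muller-Hinton II […] and an inoculum of 5×10^5 CFU/mL, antibiotic dilutions from 64 down to 0.06 μg/mL were tested following NCCLS M7-A2. The MIC is the lowest concentration inhibiting growth, including in methicillin-, penicillin- or vancomycin-resistant clinical isolates.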

Streptococcus sp. = test system: Streptococcus sp.
Outline: as §1

Enterococcus sp. = test system: Enterococcus sp.
Outline: as §1

Escherichia coli = test system: Escherichia coli

MIC Coagulase Negative Staphylococcus (GC 4547) (Staphylococcus sp.): 2 µg/mL (≈ 1.77 µM)
MIC Coagulase Negative Staphylococcus (GC 4548) (Staphylococcus sp.): 1 µg/mL (≈ 0.886 µM)
MIC Coagulase Negative Staphylococcus (GC 4549) (Staphylococcus sp.): 2 µg/mL (≈ 1.77 µM)
MIC Coagulase Negative Staphylococcus (GC 4551) (Staphylococcus sp.): 4 µg/mL (≈ 3.55 µM)
MIC Coagulase Negative Staphylococcus (GC 6257) (Staphylococcus sp.): 2 µg/mL (≈ 1.77 µM)
MIC Staphylococcus aureus SMITH (GC 4543) (Staphylococcus sp.): 2 µg/mL (≈ 1.77 µM)
MIC Staphylococcus aureus-SMITH (GC 4543) (Staphylococcus sp.; strain SMITH GC 4543): 2 µg/mL (≈ 1.77 µM)
MIC Streptococcus agalactiae (GC 4564) (Streptococcus sp.; Streptococcus agalactiae (GC 4564)): 16 µg/mL (≈ 14.2 µM)
MIC Streptococcus pneumoniae (ATCC 6301) (Streptococcus sp.; Streptococcus pneumoniae (ATCC 6301)): 16 µg/mL (≈ 14.2 µM)
MIC Streptococcus pneumoniae (GC 1894) (Streptococcus sp.; Streptococcus pneumoniae (GC 1894)): 16 µg/mL (≈ 14.2 µM)
MIC Streptococcus pneumoniae (GC 4565) (Streptococcus sp.; Streptococcus pneumoniae (GC 4565)): 16 µg/mL (≈ 14.2 µM)
MIC Streptococcus pyogenes (GC 4563) (Streptococcus sp.; Streptococcus pyogenes (GC 4563)): 8 µg/mL (≈ 7.09 µM)
MIC Streptococcus agalactiae (GC 4564) (Streptococcus sp.): 16 µg/mL (≈ 14.2 µM)
MIC Streptococcus pneumoniae (ATCC 6301) (Streptococcus sp.): 16 µg/mL (≈ 14.2 µM)
MIC Streptococcus pneumoniae (GC 1894) (Streptococcus sp.): 16 µg/mL (≈ 14.2 µM)
MIC Streptococcus pneumoniae (GC 4565) (Streptococcus sp.): 16 µg/mL (≈ 14.2 µM)
MIC Streptococcus pyogenes (GC 4563) (Streptococcus sp.): 8 µg/mL (≈ 7.09 µM)
MIC Enterococcus avium (GC 4558) (Enterococcus sp.; Enterococcus avium (GC 4558)): 4 µg/mL (≈ 3.55 µM)
MIC Enterococcus faecalis (ATCC 29212) (Enterococcus sp.; Enterococcus faecalis (ATCC 29212)): 8 µg/mL (≈ 7.09 µM)
MIC Enterococcus faecalis (GC 2242) (Enterococcus sp.; Enterococcus faecalis (GC 2242)): 4 µg/mL (≈ 3.55 µM)
MIC Enterococcus faecalis (GC 2691) (Enterococcus sp.; Enterococcus faecalis (GC 2691)): 8 µg/mL (≈ 7.09 µM)
MIC Enterococcus faecalis (GC 3059) (Enterococcus sp.; Enterococcus faecalis (GC 3059)): 8 µg/mL (≈ 7.09 µM)
MIC Enterococcus faecalis (GC 4552) (Enterococcus sp.; Enterococcus faecalis (GC 4552)): 8 µg/mL (≈ 7.09 µM)
MIC Enterococcus faecalis (GC 4553) (Enterococcus sp.; Enterococcus faecalis (GC 4553)): 8 µg/mL (≈ 7.09 µM)
MIC Enterococcus faecalis (GC 4554) (Enterococcus sp.; Enterococcus faecalis (GC 4554)): 4 µg/mL (≈ 3.55 µM)
MIC Enterococcus faecalis (GC 6189) (Enterococcus sp.; Enterococcus faecalis (GC 6189)): 4 µg/mL (≈ 3.55 µM)
MIC Enterococcus faecium (GC 2243) (Enterococcus sp.; Enterococcus faecium (GC 2243)): 4 µg/mL (≈ 3.55 µM)
MIC Enterococcus faecium (GC 4556) (Enterococcus sp.; Enterococcus faecium (GC 4556)): 8 µg/mL (≈ 7.09 µM)
MIC Enterococcus faecium (GC 4557) (Enterococcus sp.; Enterococcus faecium (GC 4557)): 2 µg/mL (≈ 1.77 µM)
MIC Enterococcus avium (GC 4558) (Enterococcus sp.): 4 µg/mL (≈ 3.55 µM)
MIC Enterococcus faecalis (ATCC 29212) (Enterococcus sp.): 8 µg/mL (≈ 7.09 µM)
MIC Enterococcus faecalis (GC 2242) (Enterococcus sp.): 4 µg/mL (≈ 3.55 µM)
MIC Enterococcus faecalis (GC 2691) (Enterococcus sp.): 8 µg/mL (≈ 7.09 µM)
MIC Enterococcus faecalis (GC 3059) (Enterococcus sp.): 8 µg/mL (≈ 7.09 µM)
MIC Enterococcus faecalis (GC 4552) (Enterococcus sp.): 8 µg/mL (≈ 7.09 µM)
MIC Enterococcus faecalis (GC 4553) (Enterococcus sp.): 8 µg/mL (≈ 7.09 µM)
MIC Enterococcus faecalis (GC 4554) (Enterococcus sp.): 4 µg/mL (≈ 3.55 µM)
MIC Enterococcus faecalis (GC 6189) (Enterococcus sp.): 4 µg/mL (≈ 3.55 µM)
MIC Enterococcus faecium (GC 2243) (Enterococcus sp.): 4 µg/mL (≈ 3.55 µM)
MIC Enterococcus faecium (GC 4556) (Enterococcus sp.): 8 µg/mL (≈ 7.09 µM)
MIC Enterococcus faecium (GC 4557) (Enterococcus sp.): 2 µg/mL (≈ 1.77 µM)
MIC Escherichia coli (ATCC 25922) (Escherichia coli): 16 µg/mL (≈ 14.2 µM)
MIC Escherichia coli (GC 4559) (Escherichia coli): 16 µg/mL (≈ 14.2 µM)
MIC Escherichia coli (GC 4560) (Escherichia coli): 4 µg/mL (≈ 3.55 µM)
Compound: CC(c1ccccc1)C1NC(=O)CNC(=O)C(CO)NC(=O)C(C(O)C2CNC(=N)N2C2OC(CO)C(O)C(O)C2O)NC(=O)C(C(O)C2CNC(=N)N2)NC(=O)C(Cc2ccc3oc(-c4ccc(C(C)(C)C)cc4)nc3c2)NC1=O (stereo not drawn) [Example 32, Cyclo[3-[2-(4-tert-butylphenyl)-1,3-benzoxazol-5-yl]alanyl-3-(2-iminoimidazolidin-4-yl)seryl-3-(3-hexopyranosyl-2-iminoimidazolidin-4-yl)serylserylglycyl-β-methylphenylalanyl]]
MIC Staphylococcus haemolyticus (GC 4546) (Staphylococcus sp.): 2 µg/mL (≈ 1.77 µM)
